Where a SMILES comes first, the peptide text is derived from it. Bridges are numbered along the chain shown (N, C = ends). [ ]: non-standard residue; d: D form. The star is where a group is joined. X1 = NC[C@@H](CC(=O)*)c1cccc(Cl)c1; X2 = CC[C@H](C)CCCCC(=O)*; Dab = NCC[C@H](N)C(=O)O; Dap = NC[C@H](N)C(=O)O
Assays:
[1] = tested on: P. aeruginosa ATCC BAA-3107 (SEN) and P. aeruginosa LESB58 (MDR); assay: Frequency-of-resistance (FoR) assay, relative MIC of mutants; type: cell-based, Pseudomonas aeruginosa
Procedure: The susceptibility of antibiotics to resistance development was evaluated in two strains of each bacterial species: a multidrug-resistant strain and an antibiotic-sensitive strain of Escherichia coli, Klebsiella pneumoniae, Acinetobacter baumannii, and Pseudomonas aeruginosa. To explore first-step resistance, we previously used a standard protocol for spontaneous frequency-of-resistance analysis (FoR assay) at multiple concentrations of each antibiotic[10],[28],[31]–[33]. […] For all other combinations, approximately 10^10 bacterial cells were exposed to one of each antibiotic on agar plates for two days at concentrations where the given strain is susceptible. We examined resistance levels by contrasting the minimum inhibitory concentration (MICs) of the mutated strains to the original wild-type bacterial strain (i.e., relative MIC).
To estimate the frequency of spontaneous mutations that confer resistance in a microbial population, we conducted a frequency of resistance (FoR) assay following established protocols[10],[31]–[33]. […] Prior to plating, bacteria were grown overnight in MHB medium at 37 °C and 250 RPM, then centrifuged and washed in MHB. All experiments were performed in triplicate, and plates were incubated at 37 °C for 48 hours. Total colony-forming units (CFUs) were determined by plating appropriate dilutions onto antibiotic-free MHB agar. Resistance frequencies were calculated by dividing the number of resistant colonies by the initial viable cell count. From the plates with the highest antibiotic concentration, ten colonies were selected for MIC determination and whole-genome sequencing.
A robotic liquid handling system was used to automatically prepare a 11 to 16-step serial dilution in 384-well microtiter plates (Greiner). A final concentration of 5 × 10^5 bacterial cells per mL were inoculated into each well containing 60 µL MHB medium. Bacterial cultures were incubated at 37 °C with continuous shaking (Infors shaker, 900 rpm with 3 mm throw) for 18 hours (2 replicates from each). Cell growth was monitored by measuring the optical density (OD600 values, using Biotek Synergy microplate reader). MIC was defined as the antibiotic concentration of complete growth inhibition (i.e., OD600 < 0.05). Relative MIC was calculated as follows:1 relativeMIC=MICevolved/MICancestor […]
Supplementary Figure 3. Resistance levels following the frequency of resistance assay across bacterial strains. The level of resistance was measured as the fold change in relative MIC between evolved and ancestral strains. Data are grouped by bacterial strain (A. baumannii (AB), E. coli (EC), K. pneumoniae (KP), and P. aeruginosa (PA)) and categorized as either multidrug-resistant (MDR) or sensitive (SEN). Each data point represents a laboratory evolved line, and boxplots show the median, first and third quartiles, with whiskers indicating the 5th and 95th percentiles. […]
analysis was performed using two-sided Dunn’s post-hoc test with Benjamini-Hochberg correction for multiple comparisons (**/ * indicates p < 0.01/ 0.05). For detailed information on antibiotic and bacterial species, see Supplementary Table 1. For mode of action groups, refer to Table 1. Source data are provided as a Source Data file.

E. coli ATCC25922 = assay: Dose-response killing curves (99.9% killing concentration, Hill coefficient); type: cell-based, Escherichia coli; settings: dose-response killing curve; for 99.9% killing (10^-3): unit not given
Source text: Fig. 9 Killing kinetics of the studied antibiotics. a Bacterial survival rate in response to toxic antibiotic exposure. […] The bars indicate the survival rate (log10) compared to the untreated initial viable cell count (see “Methods”). Data are presented as mean values of 5 biological replicates ± SEM. The antibiotic group differentiation is denoted by color. […] Survival was estimated by measuring cell viability (colony-forming units/ml) of 2 biologically independent strains following a 4-hour exposure to different concentrations of 16 antibiotics on E. coli ATCC25922 (for further details, see “Methods”). The antibiotic concentration that kills 99.9% of the E. coli population is indicated as a vertical dotted line (see Supplementary Data 5). Error bars represent standard error calculated from the colony counts by Poisson’s model. A Hill function was fitted to the dose-response data from two biological replicates, producing sigmoidal curves (Supplementary Data 5). The Hill coefficient reflects how steeply the survival rate decreases in response to increasing antibiotic concentration ([…]). […] X-axis label colors indicate mode of action groups. For detailed information on antibiotic and bacterial species, see Supplementary Data 1. Source data are provided as a Source Data file.
To test the dose range under which resistance can evolve, we employed advanced microplating and automated image analysis. We quantified bacterial population survival at varying antibiotic concentrations[62] (see “Methods”) in E. coli. Briefly, we generated dose-response curves and investigated how steeply the killing effect increases as the antibiotic concentration rises. In specific, the Hill coefficient representing each bacterial strain-antibiotic combination was calculated to quantify dose-kill kinetics.
In this current study, the killing kinetics of each antibiotic was measured according to a previously established experimental protocol[62] with minor modifications. During this assay, the bacterial cultures were exposed to antibiotics in 96-well assay plates and their viability after 4 hours of exposure was quantified by two methods: i) microplating and colony counting or ii) fluorescent staining of cells and counting of the fluorescent units.
Specifically, these experiments were performed in the following steps: (1) Preparation of bacterial stocks. Single colonies from each strain were isolated and grown overnight in MHB medium at 37 °C, 160 rpm. In case of the fluorescently tagged E. coli strains, the medium was supplemented with 10 μg/mL chloramphenicol, to maintain the pZS2R plasmid. Overnight cultures were diluted 1:5000 and grown to an optical density at 600 nm (OD600) of 0.25. These cultures were concentrated by centrifugation and small aliquots of 50 μL containing ~2.2 × 10^9 cells were frozen in glycerol (stored at −80 °C). (2) Preparing assay plates with antibiotics. 96-well plates were filled with 235 μL MHB and supplemented with antibiotics using an automated digital dispenser (D300e, Tecan). In the case of SCH79797, we used minimal media. […] For testing the clearance efficacy of each antibiotic at a single lethal dose, the 10x of the MIC for each antibiotic-strain pair were prepared in at least three replicates. (3) Antibiotic exposure. During the dose response assay, frozen cultures of the E. coli strains expressing YFP and mCherry were thawed and mixed at a 1:1 ratio, diluted 1:1000 in 30 mL MHB and incubated for 45 min at 37 °C and 160 rpm. During the single-dose assay, the frozen cultures of experimental strains (E. coli, K. pneumoniae, A. baumannii) were also thawed and diluted 1:1000 in 30 mL MHB and incubated at 37 °C to reach an OD of 0.25 and 160 rpm.

[2] = P. aeruginosa ATCC BAA 3107 (PA-SEN), evolved line 1
[3] = P. aeruginosa ATCC BAA 3107 (PA-SEN), evolved line 2
[4] = P. aeruginosa ATCC BAA 3107 (PA-SEN), evolved line 3
[5] = P. aeruginosa LESB 58 (PA-MDR), evolved line 1
[6] = P. aeruginosa LESB 58 (PA-MDR), evolved line 1, evolved vs ancestor
[7] = P. aeruginosa LESB 58 (PA-MDR), evolved line 2
[8] = P. aeruginosa LESB 58 (PA-MDR), evolved line 2, evolved vs ancestor
[9] = P. aeruginosa LESB 58 (PA-MDR), evolved line 3
[10] = P. aeruginosa LESB 58 (PA-MDR), evolved line 3, evolved vs ancestor
[11] = P. aeruginosa ATCC BAA 3107 (PA-SEN), evolved line 1, evolved vs ancestor
[12] = P. aeruginosa ATCC BAA 3107 (PA-SEN), evolved line 2, evolved vs ancestor
[13] = P. aeruginosa ATCC BAA 3107 (PA-SEN), evolved line 3, evolved vs ancestor

| Compound | MIC of evolved line [1, 2] | MIC of evolved line [1, 3] | MIC of evolved line [1, 4] | MIC of evolved line [1, 5] | MIC of evolved line [1, 7] | MIC of evolved line [1, 9] | Relative MIC [1, 11] | Relative MIC [1, 12] | Relative MIC [1, 13] | Steepness (Hill Coefficient) (E. coli ATCC25922) | 99.9% killing (10^-3) (E. coli ATCC25922) | further results |
| --- | --- | --- | --- | --- | --- | --- | --- | --- | --- | --- | --- | --- |
| Nc1nc(-n2cc(C(=O)O)c(=O)c3cc(F)c(N4CC(O)C4)c(Cl)c32)c(F)cc1F [Delafloxacin] | 2 µg/mL | 2 µg/mL | 2 µg/mL | 8 µg/mL | 8 µg/mL | 4 µg/mL | – | – | – | – | – | Relative MIC [1, 6]: 4; Relative MIC [1, 8]: 4; Relative MIC [1, 10]: 2 |
| C[C@H]1c2cccc(O)c2C(=O)C2=C(O)[C@]3(O)C(=O)C(C(N)=O)=C(O)[C@@H](N(C)C)[C@@H]3[C@@H](O)[C@@H]21 [Doxycycline] | – | – | – | – | – | – | 32 | 32 | 32 | – | – | – |
| CN(C)[C@@H]1C(O)=C(C(N)=O)C(=O)[C@@]2(O)C(O)=C3C(=O)c4c(O)c(NC(=O)CN5CCCC5)cc(F)c4C[C@H]3C[C@@H]12 [Eravacycline] | 32 µg/mL | 32 µg/mL | 32 µg/mL | – | – | – | 8 | 8 | 8 | – | – | – |
| CNC(C)C1CCC(N)C(OC2C(N)CC(N)C(OC3OCC(C)(O)C(NC)C3O)C2O)O1 (stereo not drawn) [Gentamicin] | 8 µg/mL | 8 µg/mL | 8 µg/mL | – | – | – | 8 | 8 | 8 | – | – | – |
| O=c1ccc2ncc(=O)n3c2n1C[C@H]3CN1CCC(NCc2cc3c(cn2)OCCC3)CC1 [Gepotidacin] | 64 µg/mL | 64 µg/mL | 64 µg/mL | 32 µg/mL | 32 µg/mL | 16 µg/mL | 16 | 16 | 16 | – | – | Relative MIC [1, 6]: 8; Relative MIC [1, 8]: 8; Relative MIC [1, 10]: 4 |
| C[C@@H](O)[C@H]1C(=O)N2C(C(=O)O)=C(S[C@@H]3CN[C@H](C(=O)N(C)C)C3)[C@H](C)[C@H]12 [Meropenem] | 2 µg/mL | 2 µg/mL | 2 µg/mL | 32 µg/mL | 32 µg/mL | 32 µg/mL | – | – | – | – | – | – |
| COc1c(N2C[C@@H]3CCCN[C@@H]3C2)c(F)cc2c(=O)c(C(=O)O)cn(C3CC3)c12 [Moxifloxacin] | 16 µg/mL | 32 µg/mL | 32 µg/mL | – | – | – | – | – | – | – | – | – |
| CC[C@H](C)CCCCC(=O)N[C@@H](CCN)C(=O)N[C@H](C(=O)N[C@@H](CCN)C(=O)N[C@H]1CCNC(=O)[C@H]([C@@H](C)O)NC(=O)[C@H](CCN)NC(=O)[C@H](CCN)NC(=O)[C@H](CC(C)C)NC(=O)[C@@H](Cc2ccccc2)NC(=O)[C@H](CCN)NC1=O)[C@@H](C)O [Polymyxin B] (X2-[Dab]T[Dab][Dab][Dab][dF]L[Dab][Dab]T; lactam 4-C (inferred); N-terminus assumed) | – | – | – | – | – | – | – | – | – | 46.82 | 1.08 | – |
| CC(C)c1ccc(Cn2ccc3c4c(N)nc(NC5CC5)nc4ccc32)cc1 [SCH79797] | – | – | – | – | – | – | – | – | – | 16.39 | 4.31 | – |
| CC(C)C[C@@H]1NC(=O)[C@@H](Cc2ccccc2)NC(=O)[C@H](CCN)NC(=O)[C@@H](NC(=O)[C@H](CN)NC(=O)[C@@H](NC(=O)C[C@H](CN)c2cccc(Cl)c2)[C@@H](C)O)CCNC(=O)[C@H]([C@@H](C)O)NC(=O)[C@H](CCN)NC(=O)[C@H](CCN)NC1=O [SPR206] (X1-T[Dap][Dab][Dab][dF]L[Dab][Dab]T; lactam 3-C (inferred); N-terminus assumed) | 1 µg/mL | 1 µg/mL | 1 µg/mL | 128 µg/mL | 64 µg/mL | 64 µg/mL | 1 | 1 | 1 | 59.45 | 0.18 | Relative MIC ([1]; FoR assay, Pseudomonas aeruginosa ATCC BAA 3107 (PA-SEN), evolved line 1): 1; Relative MIC ([1]; FoR assay, Pseudomonas aeruginosa ATCC BAA 3107 (PA-SEN), evolved line 2): 1; Relative MIC ([1]; FoR assay, Pseudomonas aeruginosa ATCC BAA 3107 (PA-SEN), evolved line 3): 1; Relative MIC [1, 6]: 32; Relative MIC [1, 8]: 16; Relative MIC [1, 10]: 16 |
| C[C@@H](O)[C@H]1C(=O)N2C(C(=O)O)=C(S[C@H]3CC[S@@+]([O-])C3)S[C@H]12 [Sulopenem] | – | – | – | – | – | – | – | – | – | 1.03 | 0.18 | – |
| POL7306 | – | – | – | – | – | – | – | – | – | 43.61 | 2.31 | – |
| Tridecaptin M152-P3 | – | – | – | – | – | – | – | – | – | 18.9 | 4.73 | – |
| polymyxin-B | 1 µg/mL | 1 µg/mL | 1 µg/mL | 4 µg/mL | 4 µg/mL | 4 µg/mL | – | – | – | – | – | – |
